Experiments:
[1] = target: T1, GPR84 (Homo sapiens, UniProt Q9NQS5); test: GPR84 [35S]GTPγS binding assay, Tris buffer (alternative); assay type: biochemical; conditions: 3,3′ di indolylmethane at EC80, membranes from stable cell line over expressing GPR84, read-out: Alternative GPR84 assay GTPγS IC50 (GPR84-2)
T1 construct: expressed in transfected cells
Method: 1.1. Cell Based Assay: GTp-γ S Binding Assay.
The following assay can be used for determination of GPR84 activation. The [^35S]GTPγS binding assay measures the level of G protein activation following agonist occupation of a GPCR, by determining the binding of the non-hydrolysable analog [^35S]GTPγS to Gα subunits.
Alternatively, the assay is performed in a 96 well plate where the following reagents are added. First 50 μL compound is added into the assay plate, followed by addition of 20 μL 3,3′ di indolylmethane at EC80 concentration (concentration which gives 80% of the activity of GPR84). In a last step, 30 μL of a mixture consisting of membranes-GTPγS-SpA beads is added [mixture consists of 20 μg/well membranes derived from stable cell line over expressing GPR84 (membranes are pre-incubated with 0.1 μM GDP for 15 min at 4° C.), 0.1 nM [^35S]GTPγS (Perkin Elmer, NEG030) and 0.5 mg/well PVT-WGA SpA beads (Perkin Elmer, RPNQ0001)]. All components are diluted in assay buffer containing 20 mM Tris pH 7.5; 5 mM MgCl2; 250 mM NaCl; 0.05% BSA; 75 ug/mL saponin Reactions are incubated for 90 min at room temperature followed by centrifugation at 2000 rpm during 15 min. Plates are read on a Topcount reader (Perkin Elmer) immediately after centrifugation (readout time, 1 min/well).

[2] = system: human neutrophils; test: Human neutrophil migration assay (embelin-induced chemotaxis); assay type: cell-based; conditions: Neutrophil; neutrophils from human buffy coats; embelin at EC80
Method: 2.1. Human Neutrophil Migration Assay
The effect of agonists or antagonists for GPR84 can therefore be assayed in a neutrophil migration test. In the neutrophil migration assay, neutrophils, freshly isolated from buffy coats from human volunteers, are treated with a compound for 30 min Subsequently, the neutrophils are transferred to the upper wells of a Corning HTS transwell 96 permeable support system, of which the lower wells are filled with a embelin solution at EC80 (concentration which gives 80% of the activity of GPR84). After 1 h of incubation, migration of the neutrophils towards embelin in the lower compartment can be quantified by measuring the ATP-content of the lower wells using the ATPlite luminescence ATP detection assay system (Perkin Elmer, Cat. No.: 436110).
2.1.1 Isolation of Neutrophils from Human Buffy Coat
A human buffy coat is diluted with an equal volume of ice cold DPBS. 20 mL of the diluted buffy coat is gently mixed with 4 mL of ACD buffer (140 mM citric acid, 200 mM sodium citrate and 220 mM dextrose). Then, 12 mL of the 6% dextran/0.9% NaCl solution (15 g dextran T2000 and 2.25 g NaCl dissolved in 250 mL H2O) is added to the mixture and the samples are inverted gently up to 20 times. The total volume was transferred to a new recipient and incubated at room temperature for 1 h for complete separation of the two phases to occur. The yellowish supernatant is then transferred to a clean centrifugation tube and centrifuged for 12 min at 1300 rpm and 4° C. After centrifugation, the supernatant is discarded and the remaining cell pellet is rapidly resuspended in 12 mL of ice-cold H2O for red blood cell lysis to occur. After 20 seconds, 4 mL of ice-cold 0.6 M KCl is added. Samples are mixed carefully and centrifuged for 6 min at 1300 rpm, 4° C. The supernatant is discarded and the red blood cell lysis procedure is repeated one more time. Subsequently, the cell pellet is resuspended in 4 mL of DPBS and layered over 5 mL of Lymphoprep (Nycomed Pharma, Cat. No.: 1114545) in a 15 mL centrifuge tube. After centrifugation for 12 min at 1300 rpm, 4° C., the supernatant is removed and the cell pellet, containing the neutrophils, is resuspended in 25 mL chemotaxis buffer (RPMI 1640 medium, supplemented with 10 mM HEPES; freshly made for each experiment)
A cell suspension of 8.9×10^6 cells per milliliter is prepared. 20 μL of compound solution in chemotaxis buffer is added to 180 μL cell suspension. The mixture is incubated at 37° C. for 30 min with intermediate resuspension of the cells after 15 min Following this, 70 μL cell suspension is transferred to the upper compartment of a Corning HTS transwell 96 permeable support system with 5.0 μm pore size polycarbonate membrane (Corning, Cat. No.: 3387). The receiver well of the transwell system is then filled with 200 μL chemotaxis buffer containing compound and chemotactic agent (embelin). After incubation at 37° C. in 5% CO2 for 1 h, the upper plate of the transwell system is removed and the cell suspension in the receiver plate is transferred to a 96-well V-bottom plate. 50 μL of DPBS is added to the receiver plate to prevent remaining cells from drying out. The V-bottom plate is centrifuged for 6 min at 1500 rpm. The supernatant is removed and the cells are resuspended in 50 μL DPBS. The cells are then transferred back to the receiver plate of the transwell system. After this, 100 μL ATPlite solution (Perkin Elmer, Cat. No: 436110) was added to the cells. The plate is incubated for 10 min in the dark, while shaking. […] of cell lysate is then transferred to a white 96-well plate and luminescence is measured. The detected luminescent signal is considered as linearely related to the number of cells having migrated from the upper well to the receiver well.

[3] = target: T1, GPR84; conditions: literature reports; cited from earlier work
[4] = system: RAW264.7 murine macrophage-like cells; conditions: RAW264.7 cells stimulated with LPS; cited from earlier work

T1 sequence (Q9NQS5 whole entry): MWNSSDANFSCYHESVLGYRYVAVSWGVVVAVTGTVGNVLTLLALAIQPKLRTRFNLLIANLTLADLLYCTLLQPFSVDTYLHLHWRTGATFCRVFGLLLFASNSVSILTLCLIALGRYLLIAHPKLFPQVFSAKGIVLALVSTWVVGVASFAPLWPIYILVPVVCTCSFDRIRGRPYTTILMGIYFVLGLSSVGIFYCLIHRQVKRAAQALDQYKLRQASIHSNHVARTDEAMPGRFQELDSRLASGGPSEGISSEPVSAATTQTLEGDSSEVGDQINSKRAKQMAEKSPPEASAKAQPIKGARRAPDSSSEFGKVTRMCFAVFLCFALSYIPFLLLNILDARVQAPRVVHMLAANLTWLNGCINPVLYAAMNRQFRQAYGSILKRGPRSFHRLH

Compound | IC50 [1] [nM] | IC50 [2] [nM] | GPR84 agonist activity [3] | secretion of interleukin-12 p40 subunit (IL-12 p40) [4]
O=c1nc(OCC2COc3ncccc3O2)cc2n1CCc1cc(C#CC3(O)CCCC3)ccc1-2 (stereo not drawn) [compound 142, 2-(2,3-Dihydro-[1,4]dioxino[2,3-b]pyridin-2-ylmethoxy)-9-(1-hydroxy-cyclopentylethynyl)-6,7-dihydro-pyrimido[6,1-a]isoquinolin-4-one] | 0.01 to 100 | 0.01 to 100 |  | 
O=c1nc(OCC2COc3ncccc3O2)cc2n1CCc1cc(C#Cc3ccncc3)ccc1-2 (stereo not drawn) [compound 137, 2-(2,3-dihydro-[1,4]dioxino[2,3-b]pyridin-2-ylmethoxy)-9-pyridin-4-ylethynyl-6,7-dihydro-pyrimido[6,1-a]isoquinolin-4-one] | 0.01 to 100 | 0.01 to 100 |  | 
CCCCCCCCNc1cc(=O)[nH]c(=O)[nH]1 [6-n-octylaminouracil] |  |  | some GPR84 agonist activity | 
CCCCCCCCCCC(=O)O [undecanoic acid] |  |  |  | dose dependently increased
CCCCCCCCCC(=O)O [capric acid] |  |  |  | dose dependently increased
c1ccc2c(Cc3c[nH]c4ccccc34)c[nH]c2c1 [3,3′-diindolylmethane] |  |  | some GPR84 agonist activity | 
N#Cc1ccccc1-c1ccc2c(c1)CCn1c-2cc(OCC2COc3ncccc3O2)nc1=O (stereo not drawn) [compound 125, 2-[2-(2,3-Dihydro-[1,4]dioxino[2,3-b]pyridin-2-ylmethoxy)-4-oxo-6,7-dihydro-4H-pyrimido[6,1-a]isoquinolin-9-yl]-benzonitrile] | 100 to 500 | 0.01 to 100 |  | 
CCCCCCCCCCCC(=O)O [lauric acid] |  |  |  | dose dependently increased
O=c1nc(OCC2COc3ncccc3O2)cc2n1CCc1cc(C#Cc3cccnc3)ccc1-2 (stereo not drawn) [compound 131, 2-(2,3-dihydro-[1,4]dioxino[2,3-b]pyridin-2-ylmethoxy)-9-pyridin-3-ylethynyl-6,7-dihydro-pyrimido[6,1-a]isoquinolin-4-one] | 100 to 500 | 0.01 to 100 |  | 
CC(C)(C)C#Cc1ccc2c(c1)CCn1c-2cc(OCC2COc3ncccc3O2)nc1=O (stereo not drawn) [compound 144, 2-(2,3-dihydro-[1,4]dioxino[2,3-b]pyridin-2-ylmethoxy)-9-(3,3-dimethyl-but-1-ynyl)-6,7-dihydro-pyrimido[6,1-a]isoquinolin-4-one] | 0.01 to 100 |  |  | 

The next lines start with results.

IC50 [1] [nM] | IC50 [2] [nM] | Compound | GPR84 agonist activity [3] | secretion of interleukin-12 p40 subunit (IL-12 p40) [4]
0.01 to 100 | 0.01 to 100 | Cc1cc(COc2ccc3c(c2)CCn2c-3cc(OCC3COc4ncccc4O3)nc2=O)nn1C (stereo not drawn) [compound 134, 2-(2,3-Dihydro-[1,4]dioxino[2,3-b]pyridin-2-ylmethoxy)-9-(1,5-dimethyl-1H-pyrazol-3-ylmethoxy)-6,7-dihydro-pyrimido[6,1-a]isoquinolin-4-one] |  | 
0.01 to 100 | 0.01 to 100 | COc1ccc(-c2ccc3c(c2)CCn2c-3cc(OCC3COc4ncccc4O3)nc2=O)cn1 (stereo not drawn) [compound 118, 2-(2,3-Dihydro-[1,4]dioxino[2,3-b]pyridin-2-ylmethoxy)-9-(6-methoxy-pyridin-3-yl)-6,7-dihydro-pyrimido[6,1-a]isoquinolin-4-one] |  | 
0.01 to 100 | 0.01 to 100 | Cc1ccc(-c2ccc3c(c2)CCn2c-3cc(OCC3COc4ncccc4O3)nc2=O)cn1 (stereo not drawn) [compound 139, 2-(2,3-dihydro-[1,4]dioxino[2,3-b]pyridin-2-ylmethoxy)-9-(6-methyl-pyridin-3-yl)-6,7-dihydro-pyrimido[6,1-a]isoquinolin-4-one] |  | 
100 to 500 | 0.01 to 100 | COCC#Cc1ccc2c(c1)CCn1c-2cc(OCC2COc3ncccc3O2)nc1=O (stereo not drawn) [compound 132, 2-(2,3-dihydro-[1,4]dioxino[2,3-b]pyridin-2-ylmethoxy)-9-(3-methoxy-prop-1-ynyl)-6,7-dihydro-pyrimido[6,1-a]isoquinolin-4-one] |  | 
0.01 to 100 | 0.01 to 100 | O=c1nc(OCC2COc3ncccc3O2)cc2n1CCc1cc(OCc3ccncc3)ccc1-2 (stereo not drawn) [compound 122, 2-(2,3-Dihydro-[1,4]dioxino[2,3-b]pyridin-2-ylmethoxy)-9-(pyridin-4-ylmethoxy)-6,7-dihydro-pyrimido[6,1-a]isoquinolin-4-one] |  | 
